Results published in patent US20070093554A1, “AGENT FOR IMPROVING FEELING OF COLD” (priority 2005, published 2007).

Assay: Improvement in feeling of cold evaluated by Visual Analogue Scale (VAS) method after 3 weeks ingestion of tablets
Format: in vivo, human
Conditions: 6 tablets of example 1 a day for 3 weeks, normal subjects 45 to 64 years, vs tablet not containing ornithine; FIG. 2
Method: Before the ingestion and just after the ingestion, the improvements in feeling of cold of each subject were evaluated using Visual Analogue Scale (VAS) method.
Specifically each end of the segment has a criterion of expression. Referring to FIG. 1, each subject marked somewhere in the line, corresponding to each term of the questionnaires. The distance (mm) from the left end of the line to the marked point was measured and the difference between before and after the test was calculated. The difference by the value before the test was shown in the percentage calculated; and each average value and standard deviation for each group were calculated. […] Further, it was confirmed that there was no difference between two groups before the administration test.
Further the test was carried out under a random assignment and the comparison between the double blind parallel groups was carried out. The test of the statistically significant difference between two groups was an unpaired t-test of both side distributions using the difference between the beginning and just after the test.

NCCC[C@H](N)C(=O)O [ornithine]
coldness of hands and feet (improvement, VAS): improved remarkably
